According to paper PMC7179167 (Molecules, 2020):
Where two headings read alike, the source gives them in different places.

Columns and labels:
[1] = test system: S. cerevisiae (ATCC 9080); assay: Disk diffusion antimicrobial test, S. cerevisiae; type: cell-based; settings: Saccharomyces cerevisiae, ATCC9080, yeast, 20 mg per disc (title), concentration 20 µg (footnote)
Method: (§1) The newly synthesized compounds were chosen to be evaluated in vitro towards a variety of pathogenic microorganisms; Gram-positive bacteria: S. aureus (ATCC 6538) and B. subtilis (ATCC 6633); Gram-negative bacteria: P. areuginosa (ATCC 27853) and E. coli (DSMZ 1058); yeast: C. albicans (ATCC 10231) and S. cerevisiae (ATCC 9080) and fungi: A. niger (NRRL A-326) using the disk diffusion method at a single dose of 20 µl. The results are shown in Table 1 as the growth inhibition zone (mm).
(§2) The antimicrobial activity of target compounds were evaluated to be in vitro against a variety of pathogenic microorganisms, namely Staphylococcus aureus (ATCC 6538), Bacillus subtilis (ATCC 6633) (Gram-positive bacteria), Pseudomonas areuginosa (ATCC 27853), Escherichia coli (DSMZ 1058) (Gram-negative bacteria), Candida albicans (ATCC 10231), Saccharomyces cerevisiae (ATCC 9080) (Yeast) and Aspergillus niger (NRRL A-326) (Fungi) using the disk diffusion method at a single dose of 20 µg. The microorganisms were served and obtained from the Microbial Biotechnology Department, National Research Center, Giza, Egypt. Amphotericin, amoxicillin and ciprofloxacin were used as reference drugs (Oxoid™ Disks). The tested compounds 11a–c, 12a–c, 13a–i, 14a–i and 15a,b were dissolved in dimethylsulphoxide (DMSO) at a concentration of 1 mg/mL. Aliquots of 20 μl were soaked on filter paper discs (6 mm) and dried at room temperature under sterilized conditions. The paper discs were placed on inoculated agar plats and then incubated for 24 h at 37 °C for bacterial strains and after 48–72 h incubation at 30 °C for fungi. Both bacterial and yeast strains were grown on nutrient agar medium (g/l): beef extract, 3; peptone, 10 and agar, 20 at pH of 7.2. The fungal strain was grown on Czapek-Dox medium (g/l): sucrose, 30; NaNO3, 3; MgSO4.7H2O, 0.5l; KCl, 0.5; FeSO4, 0.01; K2HPO4, 1 and agar, 20 at pH of 6.0.

[2] = DPPH free radical scavenging assay; type: biochemical; settings: concentration of 20µg/l, mean ± SD of three experiments
In short: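 Compound DMSO stock (1 mg/mL) added to fresh DPPH in DMSO (20 mg/L), vortexed 1 min, kept dark for 15–60 min. Absorbance at 517 nm; % scavenging = (A control − A sample)/A control × 100; triplicates averaged. Ascorbic acid served as reference.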

[3] = test system: Bcl-2; assay: Bcl-2 ELISA in MCF-7 cells; type: cell-based, human; settings: for Bcl-2 (ng/50 mg Protein): MCF-7 cells treated at IC50 concentration, control 25.13 ± 3.45, mean ± SD; for Reduction of expression level of antiapoptotic protein Bcl-2 compared to the control: MCF-7 cells, IC50 concentration
From the text: The promising antiproliferative results reported for compounds 11a, 11b, 12a, 12b and 13c against cell lines under study have prompted us to investigate the mechanism of cell death induced by these compounds. Apoptosis induction was examined in both MCF-7 and HCT-116 cancer cells by assaying the level of its key protein markers, namely: proapoptotic (p53, Bcl 2-associated X, Bax and caspases3) and antiapoptotic (B-cell lymphoma-2, Bcl-2). MCF-7 and HCT-116 cells undergoing apoptosis was detected by use of the ELISA technique. Protein marker levels were quantified according to Bradford assay.
Briefly, cells ([…] and HCT) were seeded at a concentration of 1.2–1.8 × 10^3 cells/well in 6-well plates. After 48-h treatment, the collected cells were lysed and centrifuged at 10,000 rpm for 20 min at 4 °C. The protein concentration was measured in the supernatant by Bradford protein assay. Volume containing […] of total protein was incubated with […] of caspase substrate in […] of the reaction buffer at 37 °C for 1 h in the dark. Caspase-3 activity was determined by a microplate reader at 405 nm using a caspase-3 colorimetric assay kit (Abcam) according to the manufacturer’s instructions. In vitro protein level quantitative measurement of apoptotic marker p53, Bcl-2-associated X (Bax) and antiapoptotic marker B-cell lymphoma-2 (Bcl-2) in cell lysate were assessed by Enzyme-Linked Immunosorbent Assay Simple Step ELISA® (ab199080, ab119506 and ab171571; Abcam) according to the manufacturer’s instructions.

[4] = test system: S. aureus (ATCC 6538); assay: Disk diffusion antimicrobial test, S. aureus; type: cell-based, Staphylococcus aureus; settings: Staphylococcus aureus, ATCC6538, Gram-positive, 20 mg per disc (title), concentration 20 µg (footnote)
Method: as §1, §2

[5] = test system: A. niger (NRRL A-326); assay: Disk diffusion antimicrobial test, A. niger; type: cell-based; settings: Aspergillus niger, fungi, 20 mg per disc (title), concentration 20 µg (footnote)
Method: as §1, §2

[6] = 15 min, read-out: Scavenging Activity (%) on DPPH radicals at 15 min
[7] = 30 min, read-out: Scavenging Activity (%) on DPPH radicals at 30 min
[8] = 45 min, read-out: Scavenging Activity (%) on DPPH radicals at 45 min
[9] = 60 min, read-out: Scavenging Activity (%) on DPPH radicals at 60 min

Structure (SMILES) | zone of inhibition at 20 µg/disc [1] | inhibition [2, 6] | inhibition [2, 7] | inhibition [2, 8] | inhibition [2, 9] | Bcl-2 (ng/50 mg Protein) [3] | zone of inhibition at 20 µg/disc [4] | zone of inhibition at 20 µg/disc [5] | Reduction of expression level of antiapoptotic protein Bcl-2 compared to the control [3]
COc1cc2occc2c(OC)c1C1=NNC2(C1)C(=O)Nc1ccccc12 (stereo not drawn) [Compound 11b, 5’-(4,6-Dimethoxy-benzofuran-5-yl)-2’,4’-dihydrospiro(indoline-3,3’-pyrazol)-2-one] | 18 mm | 9.6 ± 1.77% | 14.3 ± 1.52% | 20.4 ± 1.65% | 30.8 ± 2.04% | 16.18 ± 0.78 ng/50 mg Protein |  |  | 
COc1c(C2=NNC3(C2)C(=O)Nc2ccccc23)c(OC)c2ccoc2c1OC (stereo not drawn) [Compound 12b, 5’-(4,6,7-Trimethoxy-benzofuran-5-yl)-2’,4’-dihydrospiro(indoline-3,3’-pyrazol)-2-one] | 10 mm | 17.3 ± 1.53% | 23.5 ± 1.64% | 30.6 ± 1.49% | 40.6 ± 1.46% | 12.87 ± 1.84 ng/50 mg Protein | 10 mm | 8 mm | ~51%
COc1c(C2=NNC3(C2)C(=O)Nc2ccccc23)c(O)cc2occc12 (stereo not drawn) [Compound 11a, 5’-(6-Hydroxy-4-methoxy-benzofuran-5-yl)-2’,4’-dihydrospiro(indoline-3,3’-pyrazol)-2-one] | 16 mm | 6.86 ± 1.17% | 10.3 ± 1.37% | 17.7 ± 1.28% | 26.9 ± 1.56% | 12.3 ± 2.26 ng/50 mg Protein |  |  | ~ 50%
COc1c(C2=NNC3(C2)C(=O)Nc2ccccc23)c(O)c(OC)c2occc12 (stereo not drawn) [Compound 12a, 5’-(6-Hydroxy-4,7-dimethoxy-benzofuran-5-yl)-2’,4’-dihydrospiro(indoline-3,3’-pyrazol)-2-one] | 10 mm | 56.4 ± 1.08% | 67.1 ± 1.45% | 76.9 ± 1.51% | 81.4 ± 1.37% | 13.09 ± 2.27 ng/50 mg Protein | 8 mm |  | ~52%
